Assay results from the NIST ThermoML archive (doi:10.1021/je050277k).

O=C1CCCCCN1 [1-aza-2-cycloheptanone]
Details | vapor or sublimation pressure [kPa]
293.43 K, Crystal, Calculated from knudsen effusion weight loss | 0.000153
298.39 K, Crystal, Calculated from knudsen effusion weight loss | 0.000275
302.3 K, Crystal, Transpiration method | 0.00043
303.32 K, Crystal, Calculated from knudsen effusion weight loss | 0.000474
305.4 K, Crystal, Transpiration method | 0.00066
306.2 K, Crystal, Transpiration method | 0.0007
308.31 K, Crystal, Calculated from knudsen effusion weight loss | 0.000813
308.38 K, Crystal, Calculated from knudsen effusion weight loss | 0.000858
309.2 K, Crystal, Transpiration method | 0.00093
312.2 K, Crystal, Transpiration method | 0.00127
313.22 K, Crystal, Calculated from knudsen effusion weight loss | 0.00143
314.7 K, Crystal, Transpiration method | 0.00175
316.7 K, Crystal, Transpiration method | 0.0021
318.09 K, Crystal, Calculated from knudsen effusion weight loss | 0.00235
321.1 K, Crystal, Transpiration method | 0.00327
321.3 K, Crystal, Transpiration method | 0.00365
322.98 K, Crystal, Calculated from knudsen effusion weight loss | 0.00393
323.06 K, Crystal, Calculated from knudsen effusion weight loss | 0.00379
323.9 K, Crystal, Transpiration method | 0.00427
326.3 K, Crystal, Transpiration method | 0.00568
327.93 K, Crystal, Calculated from knudsen effusion weight loss | 0.00636
328 K, Crystal, Calculated from knudsen effusion weight loss | 0.0061
328.3 K, Crystal, Transpiration method | 0.00668
330.2 K, Crystal, Transpiration method | 0.00801
332.89 K, Crystal, Calculated from knudsen effusion weight loss | 0.01
332.93 K, Crystal, Calculated from knudsen effusion weight loss | 0.0105
333.2 K, Crystal, Transpiration method | 0.01064
336.3 K, Crystal, Transpiration method | 0.01422
337.4 K, Crystal, Transpiration method | 0.01727
337.82 K, Crystal, Calculated from knudsen effusion weight loss | 0.0155
339 K, Crystal, Transpiration method | 0.01833
345.2 K, Liquid, Transpiration method | 0.0319
345.8 K, Liquid, Transpiration method | 0.0322
347.8 K, Liquid, Transpiration method | 0.0376
350.9 K, Liquid, Transpiration method | 0.0457
353.9 K, Liquid, Transpiration method | 0.0564
355.4 K, Liquid, Transpiration method | 0.0612
357 K, Liquid, Transpiration method | 0.071
359.1 K, Liquid, Transpiration method | 0.0758
360.2 K, Liquid, Transpiration method | 0.089
362.1 K, Liquid, Transpiration method | 0.0992
363.1 K, Liquid, Transpiration method | 0.103
364.9 K, Liquid, Transpiration method | 0.1189
366.3 K, Liquid, Transpiration method | 0.1294
369.7 K, Liquid, Transpiration method | 0.16
372.2 K, Liquid, Transpiration method | 0.1866
